Results as given in ChEMBL document CHEMBL3039007, “Structure-based identification of OATP1B1/3 inhibitors” (Mol Pharmacol, 2013).

Assays:
[1] = target: T1, Solute carrier organic anion transporter family member 1B1 (Homo sapiens, UniProt Q9Y6L6); details: chinese hamster, cho, 10 µM
T1 sequence (Q9Y6L6 whole entry): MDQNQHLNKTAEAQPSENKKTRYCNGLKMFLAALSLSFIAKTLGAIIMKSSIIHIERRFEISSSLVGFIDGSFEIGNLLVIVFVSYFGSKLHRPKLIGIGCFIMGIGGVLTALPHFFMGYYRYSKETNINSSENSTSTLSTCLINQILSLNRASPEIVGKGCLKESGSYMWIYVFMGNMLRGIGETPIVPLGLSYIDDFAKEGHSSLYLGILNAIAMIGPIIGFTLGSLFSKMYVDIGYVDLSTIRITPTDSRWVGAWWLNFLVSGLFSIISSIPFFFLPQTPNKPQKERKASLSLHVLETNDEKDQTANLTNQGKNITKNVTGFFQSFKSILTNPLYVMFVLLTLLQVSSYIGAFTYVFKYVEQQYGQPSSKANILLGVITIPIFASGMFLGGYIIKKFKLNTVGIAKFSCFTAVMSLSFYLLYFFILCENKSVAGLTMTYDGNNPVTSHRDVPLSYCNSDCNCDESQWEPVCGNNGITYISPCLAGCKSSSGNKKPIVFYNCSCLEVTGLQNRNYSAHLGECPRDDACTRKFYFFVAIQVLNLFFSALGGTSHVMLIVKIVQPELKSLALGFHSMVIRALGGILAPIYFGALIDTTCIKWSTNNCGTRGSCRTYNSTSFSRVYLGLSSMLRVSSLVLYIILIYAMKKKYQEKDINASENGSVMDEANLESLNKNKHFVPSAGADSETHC

[2] = target: T2, Solute carrier organic anion transporter family member 1B3 (Homo sapiens, UniProt Q9NPD5); details: chinese hamster, cho, 10 µM
T2 sequence (Q9NPD5 whole entry): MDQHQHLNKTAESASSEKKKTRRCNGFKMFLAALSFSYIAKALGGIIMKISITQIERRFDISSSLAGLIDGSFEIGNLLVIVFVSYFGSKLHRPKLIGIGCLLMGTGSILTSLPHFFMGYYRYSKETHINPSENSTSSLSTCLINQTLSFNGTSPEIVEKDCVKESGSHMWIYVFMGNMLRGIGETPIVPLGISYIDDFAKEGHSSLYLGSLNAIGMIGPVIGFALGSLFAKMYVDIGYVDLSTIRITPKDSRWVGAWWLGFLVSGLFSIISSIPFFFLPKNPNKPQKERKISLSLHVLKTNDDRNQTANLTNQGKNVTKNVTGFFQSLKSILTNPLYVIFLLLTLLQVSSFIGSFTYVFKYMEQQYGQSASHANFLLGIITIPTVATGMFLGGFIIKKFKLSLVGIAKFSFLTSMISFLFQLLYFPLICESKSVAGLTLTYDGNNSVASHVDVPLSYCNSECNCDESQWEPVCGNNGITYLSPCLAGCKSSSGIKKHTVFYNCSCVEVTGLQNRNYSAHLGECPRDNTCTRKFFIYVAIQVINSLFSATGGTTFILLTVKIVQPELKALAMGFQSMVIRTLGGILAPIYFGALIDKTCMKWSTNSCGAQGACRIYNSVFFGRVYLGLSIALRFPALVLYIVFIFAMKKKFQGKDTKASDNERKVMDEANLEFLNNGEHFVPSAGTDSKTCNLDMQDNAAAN

SMILES	residual activity [1] [%]	residual activity [2] [%]
CN1C(C(=O)Nc2ccccn2)=C(O)c2ccccc2S1(=O)=O [PIROXICAM]	68.52	87.59
Nc1nc2c(ncn2[C@H]2C[C@H](O)[C@@H](CO)O2)c(=O)[nH]1 [DEOXYGUANOSINE]	85.51	90.97
Nc1ccc(S(=O)(=O)NC(=O)c2ccccc2)cc1 [SULFABENZAMIDE]	84.77	94.35
CC(C)=CCC/C(C)=C/CC/C(C)=C/CO [FARNESOL]	89.38	89.91
CC(C)NCC(O)COc1ccc(CC(N)=O)cc1 (centres undefined) [ATENOLOL]	78.26	93.81
C[N+](C)(C)CCOP(=O)(O)OP(=O)([O-])OC[C@H]1O[C@@H](n2ccc(N)nc2=O)[C@H](O)[C@@H]1O [CITICOLINE]	81.06	69.94
CN(C)C(=O)Nc1ccc(Cl)c(Cl)c1 [DCMU]	105.4	99
CC(Oc1ccccc1)C(=O)N[C@@H]1C(=O)N2[C@@H]1SC(C)(C)[C@@H]2C(=O)[O-].[K+] (some centres undefined) [PHENETHICILLIN POTASSIUM]	83.14	90.72
O=c1cc(-c2ccc(O)cc2)oc2cc(O[C@@H]3O[C@H](CO)[C@@H](O)[C@H](O)[C@H]3O)cc(O)c12 [APIGETRIN]	204.4	134.6
COC1C(O)C(O[C@H]2CC[C@]3(C=O)C4C(CC[C@]3(O)C2)[C@@]2(O)CC[C@H](C3=CC(=O)OC3)[C@@]2(C)C[C@H]4OC(C)=O)OC(C)C1OC(C)=O (some centres undefined) [SARMENTOSIDE B]	58.47	72.65
CN(C)C(=S)SSC(=S)N(C)C [THIRAM]	104.4	99.01
CNC(=N)NCCC[C@H](N)C(=O)O [TILARGININE]	94.97	97.33
NS(=O)(=O)c1cc2c(cc1Cl)N=C(CSCc1ccccc1)NS2(=O)=O [BENZTHIAZIDE]	74.12	56.86
C[C@H]1O[C@@H](O[C@H]2[C@@H](O)C[C@H](O[C@H]3[C@@H](O)C[C@H](O[C@H]4CC[C@@]5(C)[C@H](CC[C@@H]6[C@@H]5CC[C@]5(C)[C@@H](C7=CC(=O)OC7)[C@@H](O)C[C@]65O)C4)O[C@@H]3C)O[C@@H]2C)C[C@H](O)[C@@H]1O [GITOXIN]	103.4	102.2
CCCC(=O)Nc1ncnc2c1ncn2[C@@H]1O[C@@H]2COP(=O)(O)O[C@H]2[C@H]1OC(=O)CCC [BUCLADESINE]	116	88.95
O=C/C=C/c1ccc(O)cc1 [p-HYDROXYCINNAMALDEHYDE]	139.6	70.79
C=C(C)CCC[C@@H](C)CCOC(C)=O	104.4	112.9
CN[C@@H](C)[C@@H](O)c1ccccc1.Cl [PSEUDOEPHEDRINE HYDROCHLORIDE]	86.1	102.7
C[C@@H]1O[C@@H](Oc2c(-c3ccc(O)c(O)c3)oc3cc(O)cc(O)c3c2=O)[C@H](O)[C@H](O)[C@H]1O [QUERCITRIN]	107.2	114.6
CC(=O)NC1CCSC1=O (centres undefined) [CITIOLONE]	110.6	92.74
NC1(C(=O)O)CCCC1 [CYCLOLEUCINE]	99.09	108.5

SMILES	residual activity [1] [%]	residual activity [2] [%]
CC(=O)O[C@H]1C[C@@H](OC(C)=O)C(C)(C)[C@@H]2C[C@@H](OC(C)=O)[C@]3(C)[C@H](CC[C@]4(C)[C@H](c5ccoc5)C(=O)[C@H]5O[C@@]534)[C@@]12C	26.02	57.61
O=C([O-])Cc1ccccc1Nc1c(Cl)cccc1Cl.[Na+] [DICLOFENAC SODIUM]	110.6	71.01
Cc1ccc2c(Cl)cc(Cl)c(O)c2n1 [CHLORQUINALDOL]	98.6	88.49
O=C(O)c1cc(O)ccc1O [GENTISIC ACID]	84.57	104
Oc1c(Cl)cc(Cl)c(Cl)c1Cc1c(O)c(Cl)cc(Cl)c1Cl [HEXACHLOROPHENE]	7.55	3.11
C[C@@H]1C[C@H]2[C@@H]3C[C@H](F)C4=CC(=O)C=C[C@]4(C)[C@@]3(F)[C@@H](O)C[C@]2(C)[C@@]1(O)C(=O)COC(=O)C(C)(C)C [FLUMETHASONE PIVALATE]	98.41	107.9
C=C1CC/C=C(\C)CC[C@@H]2[C@@H]1CC2(C)C [BETA-CARYOPHYLLENE]	99.94	88.67
CC[C@@]1(O)C[C@H](O)c2c(cc3c(c2O)C(=O)c2c(O)ccc(O)c2C3=O)[C@H]1C(=O)OC [RUTILANTINONE]	74.91	99.74
O=C1N=C([O-])NC1(c1ccccc1)c1ccccc1.[Na+] [PHENYTOIN SODIUM]	95.94	97.47
Cl.NCC(O)c1ccc(O)cc1 (centres undefined) [OCTOPAMINE HYDROCHLORIDE]	89.25	96.06
CCCCN(CC)c1c([N+](=O)[O-])cc(C(F)(F)F)cc1[N+](=O)[O-] [BENFLURALIN]	96.31	100.4
C[C@@H]1O[C@@H](O[C@H]2[C@H](Oc3cc(O)c4c(=O)cc(-c5ccc(O)cc5)oc4c3)O[C@H](CO)[C@@H](O)[C@@H]2O)[C@H](O)[C@H](O)[C@H]1O [RHOIFOLIN]	101.7	203.1
COc1ccc(/C=C/c2cc(O)cc(O[C@@H]3O[C@H](CO)[C@@H](O)[C@H](O)[C@H]3O)c2)cc1O [RHAPONTIN]	166.2	100.6
Cc1onc(-c2ccccc2)c1C(=O)N[C@@H]1C(=O)N2[C@@H]1SC(C)(C)[C@@H]2C(=O)[O-].[Na+]	76.67	90.07
O=C(O)c1c2ccccc2cc2ccccc12 [ANTHRACENE-9-CARBOXYLIC ACID]	95.94	87.88
CCN(CC)CCOC(=O)C(c1ccccc1)C1CCCCC1.Cl (centres undefined) [DROFENINE HYDROCHLORIDE]	99.44	112.3
COc1ccc(CCN2CCC(Nc3nc4ccccc4n3Cc3ccc(F)cc3)CC2)cc1 [ASTEMIZOLE]	127.5	97.68
Cc1cc(O)c(C)c(O)c1C(=O)O [3-METHYLORSELLINIC ACID]	116.2	114.8
Cc1ccnc(NS(=O)(=O)c2ccc(N)cc2)n1 [SULFAMERAZINE]	84.88	101.2
CC(=O)O[C@H]1CC[C@@]2(C)C(=CC(=O)[C@H]3[C@@H]4CC[C@H]([C@H](C)CCCC(C)C)[C@@]4(C)CC[C@@H]32)C1 [7-OXOCHOLESTERYL ACETATE]	97.51	99.45
C1N2CN3CN1CN(C2)C3 [METHENAMINE]	93.33	72.89
